Assay results reported in publication PMC9489722, “Identification and development of a subtype-selective allosteric AKT inhibitor suitable for clinical development” (Scientific Reports, 2022).

Assays:
[1] = Pharmacokinetic study in Sprague–Dawley rats; type: in vivo, rat; details: male SD rats
Experimental: Eight rats were purchased and 6 used on the PK study (3 per administration route). The remaining rats were purchased in case of mis-dosing events and were used to obtain blank biological matrix. Compounds were administered as single i.v. doses at 1 mg free base/kg or single oral doses at 5 mg free base/kg, with blood samples obtained from three rats per dose route, at 9 time-points out to 24 h post-dose. Both the intravenous and oral doses were prepared at a concentration of 1 mg free base/mL in a mixture of 5% DMSO/95% saline. Blood samples were centrifuged to give plasma. Plasma proteins were precipitated, and compounds extracted by addition of six volumes of acetonitrile containing warfarin as internal standard. Samples were centrifuged at 4000 rpm for 30 min and the supernatants were analysed on a Waters Xevo TQ mass spectrometer. Multiple Reaction Monitoring (MRM) methods were developed for each test compound using Waters IntelliStart software.
Quantification of test compounds was by extrapolation from calibration lines prepared in control rat plasma and analysed concurrently with experimental samples.
Non-compartmental analysis was performed using the software package PK Solutions 2.0 from Summit Research Services to produce the PK parameters. AUC values were calculated by the trapezoidal method.
Oral bioavailability was estimated by comparison of the drug concentration/time AUCs for individual animals after oral dosing with the mean AUC from i.v. doses.

A549 cells = test: In vitro proliferation assay (CellTiter-Glo), A549; type: cell-based; details: Homo sapiens; A549 cell line
Experimental: MCF-7, T47D, NCI-H460, HCT116, LNCaP, A431, PC3, PANC-1, A549, HT29M, SKOV-3, Du145, HMEC-1, Hs888Lu, Hela, MDA-MB-231 and SW480 cells were obtained from American Type Culture Collection (ATCC). A2780, PNT2, U251MG, HFFF2 and Fr2 cells were obtained from Public Health England European Collection of Authenticated Cell Cultures (Phe ECACC). InMyoFib and NHLF cells were acquired from Lonza. Cells were then incubated with increasing concentration of inhibitor (1 nM to 100 µM) for 72 h at 37 °C. Cell viability was determined using the CellTiter-Glo Luminescent Cell Viability Assay (Promega). IC50 values were derived as previously stated.

MCF-7 cells = test: In vitro Incucyte live cell imaging proliferation assay; type: cell-based; details: MCF-7, 5 µM, 7d time course
Experimental: MCF-7 cells were obtained from American Type Culture Collection (ATCC). […] Cell confluency was measured over time using an Incucyte Zoom S3 using the basic analyser processing analysing tool. Percentage confluence values were calculated and IC50 values were derived as previously stated.

[2] = test system: pAKT^S473 in A549 tumours; test: PK/PD study in A549 lung cancer xenograft model; type: in vivo, mouse; details: single oral dose 10, 30 or 100 mg/kg
Experimental: In order to understand the relationship between ALM301 plasma exposure and in vivo AKT target engagement over time, a PK/PD study was carried out in a A549 lung cancer xenograft model. […] ALM301 plasma concentrations and levels of pAKT^S473 in tumours were measured using western blotting and immunohistochemistry (Fig. 4A, B and Supplementary Fig. S4A–C). […] Tumour sections were collected following one dose of either vehicle or 30 mg/kg of ALM301 at noted time intervals (1 h, 2 h, 4 h, 8 h, 24 h). Tissue sections were subsequently stained with pAKT antibody (brown) staining and scored for pAKT staining using a scale of 1–4 (low to high) (Fig. 4B).
For pharmacokinetic/pharmacodynamic (PK/PD) studies in A549 lung cancer xenografts, 150 male BALB/c nude mice aged 6–8 weeks and weighing approximately 18–22 g were inoculated with 1 × 10^7 A549 tumour cells (ATCC) in 0.1 mL of PBS with Matrigel (1:1) subcutaneously into the right flank. Once the mean tumour size reached 150–250 mm^3, the mice were randomised into treatment groups (18 mice per group) using a randomised block design (first, experimental animals are divided into homogeneous blocks according to their initial tumour volume; secondly, within each block, randomisation of animals to treatment groups was conducted so that each animal had the same probability of being assigned to a given treatment, thereby reducing systematic bias). Group sizes were devised based on previous pilot studies using a minimal numbers approach of n = 3 tumours per time-point (6 time-points per dose level). […] Tumour size was measured twice weekly in two dimensions using a caliper, and the volume expressed in mm^3 using the formula: V = 0.5 (a × b^2), where a and b are the long and short diameters of the tumour, respectively.

MCF-7 xenografts = test: Efficacy study in MCF-7 breast cancer xenograft model; type: in vivo; details: MCF-7 xenograft; for tumour regression: p.o.
Experimental: For efficacy in MCF-7 xenografts, 150 SCID female mice aged 6–8 weeks and weighing approximately 18–22 g were implanted with 1 × 10^7 MCF-7 tumour cells (ATCC) subcutaneously in the right flank. […] Once mean tumour size reached approximately 150 mm^3, mice were randomised to either control or treatment groups (n = 10/group) using a randomised block approach. Groups sizes were devised based on past experience of the provider. […] Tumour size was measured twice weekly in two dimensions using a caliper, and the volume expressed in mm^3 using the formula: V = 0.5 (a x b^2), where a and b are the long and short diameters of the tumour, respectively.

[3] = test system: pGSK3β in PC3 prostate cancer cells; test: pGSK3β ELISA in PC3 cells; type: cell-based; details: Homo sapiens, PC-3; PC3 cells, 24 h
Experimental: Cells were then washed with PBS and lysed. The subsequent supernatant was assayed using a GSK3β (pS9) (Invitrogen, Life Technologies) ELISA. Phospho-AKT levels were detected using the phospho-AKT (S473) immunoassay (R&D Systems) as per manufacturer’s protocol. Percentage inhibition of phosphorylation status was calculated by comparing phospho-AKT levels to total AKT levels with each treatment and IC50 values derived using non-linear regression on GraphPad Prism.

CYP 2D6 = CYP 2D6 (Homo sapiens, UniProt P10635); test: CYP2D6 inhibition; type: in vitro ADME
Chain of CYP 2D6 (P10635 whole entry): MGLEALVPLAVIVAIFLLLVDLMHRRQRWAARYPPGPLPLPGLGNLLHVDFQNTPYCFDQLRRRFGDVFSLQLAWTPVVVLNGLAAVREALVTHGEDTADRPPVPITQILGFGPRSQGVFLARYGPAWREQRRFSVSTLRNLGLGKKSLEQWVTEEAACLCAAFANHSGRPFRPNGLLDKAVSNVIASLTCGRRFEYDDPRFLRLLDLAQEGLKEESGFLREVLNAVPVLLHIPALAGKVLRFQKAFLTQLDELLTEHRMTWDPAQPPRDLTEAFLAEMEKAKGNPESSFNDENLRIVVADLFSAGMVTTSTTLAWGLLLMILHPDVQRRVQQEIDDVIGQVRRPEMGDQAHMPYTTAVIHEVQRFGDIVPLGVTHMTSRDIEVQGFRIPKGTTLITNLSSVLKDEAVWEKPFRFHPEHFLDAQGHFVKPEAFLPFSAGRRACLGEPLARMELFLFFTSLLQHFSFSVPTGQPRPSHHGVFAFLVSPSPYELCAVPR

For CCN1C(=O)COc2nc(-c3ccc([C@]4(N)C[C@@H](O)C4)cc3)c(-c3ccccc3)cc21 [ALM301, 6-(4-((1S,3S)-1-amino-3-hydroxycyclobutyl)phenyl)-1-ethyl-7-phenyl-1H-pyrido[2,3-b][1,4]oxazin-2(3H)-one], the clearance ([1]; Sprague-Dawley, rat, plasma, iv, 1 mg/kg i.v., read-out: Rat PK CL) was 19 mL/min/kg, the Vd ([1]; Sprague-Dawley, rat, plasma, iv, 1 mg/kg i.v., read-out: Rat PK Vd) was 13 L/kg and the “Rat PK F” value ([1]; 1 mg/kg i.v. and 5 mg/kg p.o., AUC 0-∞) was 26%. The IC50 (A549 cells) was 43 µM, the “cell proliferation by live cell imaging” value (MCF-7 cells) was “completely abrogated cell proliferation” and the “pAKT^S473 in tumours” value ([2]; all timepoints over 24 h, BALB/c mice bearing A549 xenografts) was “almost total abrogation”. The total plasma concentrations ([2]; mice bearing A549 xenografts) was “dose-dependent increases”, the tumour regression (MCF-7 xenografts; ALM301 3 mg/kg q.d. in combination with tamoxifen 5 mg/kg q.d.) was 57% and the tumour regression (MCF-7 xenografts; ALM301 10 mg/kg q.d. in combination with tamoxifen 5 mg/kg q.d.) was 50%. For the same molecule, the “tolerability / animal body weight” value (MCF-7 xenografts; monotherapy and in combination with tamoxifen, any dose levels) was “no significant effects on animal body weight”, the “tumour growth inhibition, single agent” value (MCF-7 xenografts; p.o. 3 or 10 mg/kg once-a-day) was “minimal tumour growth inhibition” and the IC50 [3] was 0.16 µM. For the same molecule, the IC50 (CYP 2D6) was greater than 25 µM.
